Paper PMC1500806, “Carrageenan Is a Potent Inhibitor of Papillomavirus Infection” (PLoS Pathogens, 2006)
Converted amounts (≈) assume the structure as drawn. Positions of bridges follow the written chain, without caps; N, C: chain ends. Non-standard residues stand in square brackets, D forms with d. Residues, ends and D or L forms follow the SMILES beside them. *: point of attachment. Ileψ(thiazoline)Cys = CC[C@H](C)[C@H](N)C1=N[C@H](C(=O)*)CS1; dOrn = NCCC[C@@H](N)C(=O)O

Test system: not listed separately
Test: Cytotoxicity (WST-1 turnover and/or cell morphology)
Format: cell-based
Conditions: human, HeLa cells; >50% reduction in WST-1 turnover and/or altered cell morphology
Experimental: (§1) Compounds were tested using a previously described PsV-based papillomavirus inhibition assay. Briefly, HeLa cells were plated at 6,000 cells/well in 50 μl of medium in 96-well plates. Candidate inhibitors were dissolved at 1–10 mg/ml (or reconstituted as directed by manufacturer) in sterile water or appropriate solvent, then subjected to a ten-point three-fold serial dilution covering an appropriate concentration range. Diluted candidate inhibitor (50 μl) was added to preplated HeLa cells, followed by 50 μl of diluted PsV stock. The cells were incubated for 24 h, fed by addition of 100 μl of DMEM-10, then subjected to flow cytometric analysis 48–56 h after infection. IC50 values and 95% CI were determined using Prism (GraphPad Software, San Diego, California, United States) to calculate a variable slope sigmoidal dose-response curve.
(§2) Cytotoxicity was defined as a >50% reduction in the net turnover of the metabolic substrate WST-1 (Roche, Indianapolis, Indiana, United States) and/or by the appearance of dramatic alterations in the microscopic appearance of cell morphology at the time of harvest.

Molecule	CC50 [µg/mL]
CC[C@H](C)[C@H](N)C1=N[C@H](C(=O)N[C@@H](CC(C)C)C(=O)N[C@H](CCC(=O)O)C(=O)N[C@H](C(=O)N[C@H]2CCCCNC(=O)[C@H](CC(N)=O)NC(=O)[C@@H](CC(=O)O)NC(=O)[C@H](Cc3cnc[nH]3)NC(=O)[C@@H](Cc3ccccc3)NC(=O)[C@H]([C@@H](C)CC)NC(=O)[C@@H](CCCN)NC2=O)[C@@H](C)CC)CS1 [Bacitracin] ({Ileψ(thiazoline)Cys}-L[dE]IK[dOrn]I[dF]H[dD]N; lactam 4-C (inferred))	> 420
CC[C@H](C)[C@H](NC(=O)CNC(=O)[C@H](CC(=O)O)NC(=O)[C@H](CCCNC(=N)N)NC(=O)[C@@H](NC(=O)[C@H](CC(N)=O)NC(=O)[C@H](CCC(N)=O)NC(=O)CNC(=O)[C@@H](NC(=O)[C@H](CCCCN)NC(=O)[C@H](CCC(=O)O)NC(=O)[C@@H](NC(=O)[C@H](CCCCN)NC(=O)[C@H](CCCCN)NC(=O)[C@H](Cc1ccccc1)NC(=O)[C@H](CC(C)C)NC(=O)[C@H](CCCCN)NC(=O)[C@H](Cc1c[nH]c2ccccc12)NC(=O)[C@@H](N)CCCCN)[C@@H](C)CC)C(C)C)[C@@H](C)CC)C(=O)N[C@H](C(=O)N[C@@H](CCCCN)C(=O)N[C@@H](C)C(=O)NCC(=O)N1CCC[C@H]1C(=O)N[C@@H](C)C(=O)N[C@H](C(=O)N[C@@H](C)C(=O)N[C@H](C(=O)N[C@H](C(=O)NCC(=O)N[C@@H](CCC(N)=O)C(=O)N[C@@H](C)C(=O)N[C@H](C(=O)N[C@@H](CCC(N)=O)C(=O)N[C@H](C(=O)N[C@@H](C)C(=O)N[C@@H](CCCCN)C(N)=O)[C@@H](C)CC)[C@@H](C)O)C(C)C)C(C)C)C(C)C)[C@@H](C)CC [Cecropin A (porcine)] (H-KWKLFKKIEKVGQNIRDGIIKAGPAVAVVGQATQIAK-NH2; N-terminus and C-terminus assumed)	> 100
CC[C@H](C)[C@H](NC(=O)[C@H](CCCCN)NC(=O)[C@H](CCCCN)NC(=O)[C@H](Cc1ccccc1)NC(=O)[C@H](CC(C)C)NC(=O)[C@H](CCCCN)NC(=O)[C@H](Cc1c[nH]c2ccccc12)NC(=O)[C@@H](N)CCCCN)C(=O)NCC(=O)N[C@@H](C)C(=O)N[C@H](C(=O)N[C@@H](CC(C)C)C(=O)N[C@@H](CCCCN)C(=O)N[C@H](C(=O)N[C@@H](CC(C)C)C(N)=O)C(C)C)C(C)C [Cecropin A-Mellitin hybrid] (H-KWKLFKKIGAVLKVL-NH2; N-terminus and C-terminus assumed)	11 (≈ 6.21 µM)
CC(C)C[C@H](NC(=O)[C@H](C)NC(=O)[C@H](CCCCN)NC(=O)[C@H](CCCCN)NC(=O)[C@H](CC(C)C)NC(=O)[C@H](C)NC(=O)[C@H](CCCCN)NC(=O)[C@H](CCCCN)NC(=O)[C@H](CC(C)C)NC(=O)[C@H](CCCCN)NC(=O)[C@H](CCCCN)NC(=O)[C@H](CC(C)C)NC(=O)[C@H](C)NC(=O)[C@H](CCCCN)NC(=O)[C@H](CCCCN)NC(=O)[C@H](CC(C)C)NC(=O)[C@H](C)NC(=O)[C@H](CCCCN)NC(=O)[C@H](CC(C)C)NC(=O)[C@H](C)NC(=O)[C@H](CC(C)C)NC(=O)[C@H](C)NC(=O)[C@@H](N)Cc1ccccc1)C(=O)O [Hecate] (H-FALALKALKKALKKLKKALKKAL-OH; N-terminus and C-terminus assumed)	17 (≈ 6.7 µM)
CSCC[C@H](NC(=O)[C@H](CCCNC(=N)N)NC(=O)[C@H](Cc1c[nH]c2ccccc12)NC(=O)[C@H](CCC(N)=O)NC(=O)[C@H](Cc1c[nH]c2ccccc12)NC(=O)[C@H](CCCNC(=N)N)NC(=O)[C@@H](N)CCCNC(=N)N)C(=O)N[C@@H](CCCCN)C(=O)N[C@@H](CCCCN)C(=O)N[C@@H](CC(C)C)C(=O)NCC(=O)O [Lactoferricin B 4–14 fragment] (H-RRWQWRMKKLG-OH; N-terminus and C-terminus assumed)	> 15
CC[C@H](C)[C@H](NC(=O)CN)C(=O)NCC(=O)N[C@@H](CCCCN)C(=O)N[C@@H](Cc1ccccc1)C(=O)N[C@@H](CC(C)C)C(=O)N[C@@H](Cc1c[nH]cn1)C(=O)N[C@@H](CO)C(=O)N[C@@H](C)C(=O)NCC(=O)N[C@@H](CCCCN)C(=O)N[C@@H](Cc1ccccc1)C(=O)NCC(=O)N[C@@H](CCCCN)C(=O)N[C@@H](C)C(=O)N[C@@H](Cc1ccccc1)C(=O)N[C@H](C(=O)NCC(=O)N[C@@H](CCC(=O)O)C(=O)N[C@H](C(=O)N[C@@H](CCSC)C(=O)N[C@@H](CCCCN)C(=O)N[C@@H](CO)C(=O)O)[C@@H](C)CC)C(C)C [Magainin-I] (H-GIGKFLHSAGKFGKAFVGEIMKS-OH)	> 100
CC[C@H](C)[C@H](NC(=O)CN)C(=O)NCC(=O)N[C@@H](C)C(=O)N[C@H](C(=O)N[C@@H](CC(C)C)C(=O)N[C@@H](CCCCN)C(=O)N[C@H](C(=O)N[C@@H](CC(C)C)C(=O)N[C@H](C(=O)N[C@H](C(=O)NCC(=O)N[C@@H](CC(C)C)C(=O)N1CCC[C@H]1C(=O)N[C@@H](C)C(=O)N[C@@H](CC(C)C)C(=O)N[C@H](C(=O)N[C@@H](CO)C(=O)N[C@@H](Cc1c[nH]c2ccccc12)C(=O)N[C@H](C(=O)N[C@@H](CCCCN)C(=O)N[C@@H](CCCNC(=N)N)C(=O)N[C@@H](CCCCN)C(=O)N[C@@H](CCCNC(=N)N)C(=O)N[C@@H](CCC(N)=O)C(=O)N[C@@H](CCC(N)=O)C(N)=O)[C@@H](C)CC)[C@@H](C)CC)[C@@H](C)O)[C@@H](C)O)C(C)C)C(C)C [Melittin]	4 (≈ 1.41 µM)
CC(C)[C@H](NC(=O)[C@H](CCCCN)NC(=O)CNC(=O)CNC(=O)[C@H](CCC(N)=O)NC(=O)[C@H](CCCCN)NC(=O)CNC(=O)[C@H](CCCNC(=N)N)NC(=O)CNC(=O)[C@@H](N)CCCCN)C(=O)N[C@@H](CCCNC(=N)N)C(=O)N[C@@H](C)C(=O)N[C@@H](CCCCN)C(=O)N[C@@H](C)C(=O)N[C@@H](CCCCN)C(=O)N[C@H](C(=O)N[C@@H](CCCNC(=N)N)C(=O)N[C@@H](CO)C(=O)N[C@@H](CO)C(=O)O)[C@@H](C)O [Parasin-I] (H-KGRGKQGGKVRAKAKTRSS-OH)	> 100
N=C(N)NCCC[C@H](NC(=O)[C@H](CCCNC(=N)N)NC(=O)[C@H](CCCNC(=N)N)NC(=O)[C@H](CCCNC(=N)N)NC(=O)[C@H](CCCNC(=N)N)NC(=O)[C@H](CCCNC(=N)N)NC(=O)[C@@H](N)CCCNC(=N)N)C(=O)O [Poly-arginine7]	> 100
CC[C@H](C)[C@@H]1NC(=O)CNC(=O)[C@H](CCCNC(=N)N)NC(=O)[C@H](Cc2ccc(O)cc2)NC(=O)[C@@H]2CSSC[C@H](NC1=O)C(=O)N[C@@H](Cc1ccc(O)cc1)C(=O)N[C@@H](CCCNC(=N)N)C(=O)N[C@@H](CCCNC(=N)N)C(=O)N[C@H](C(=O)N[C@@H](CCCNC(=N)N)C(N)=O)CSSC[C@H](NC(=O)[C@H](Cc1c[nH]c3ccccc13)NC(=O)[C@@H](N)CCCCN)C(=O)N[C@@H](Cc1ccccc1)C(=O)N[C@@H](CCCNC(=N)N)C(=O)N[C@@H](C(C)C)C(=O)N2 [Tachyplesin-I] (H-KWCFRVCYRGICYRRCR-NH2; disulfide 3-16, 7-12)	100 (≈ 44.2 µM)
C[C@@H](O)[C@H](N)C(=O)N[C@@H](CCCCN)C(=O)N1CCC[C@H]1C(=O)N[C@@H](CCCNC(=N)N)C(=O)O [Tuftsin] (H-TKPR-OH; N-terminus and C-terminus assumed)	> 100

Test system: HeLa cells
Test: as above
Format: cell-based
Conditions: not given
Experimental: as §1, §2

Molecule	Cytotoxicity
OCCS [2-Mercaptoethanol]	>100 µg/mL
O[C@@H](CS)[C@@H](O)CS [Dithiothreotol]	>100 µg/mL
O=C(O)c1cc(SSc2ccc([N+](=O)[O-])c(C(=O)O)c2)ccc1[N+](=O)[O-] [Ellman's reagent]	1,300 μg/ml
Cl.N=C(N)N [Guanidine hydrochloride]	>475 µg/mL
C[C@@H]1[C@H](O)[C@@H](C)/C=C/C=C/CC/C=C/C=C/C=C/C=C/C(O[C@H]2O[C@H](C)[C@@H](O)[C@H](N)[C@@H]2O)CC2O[C@](O)(CC(O)C(O)CCC(O)CC(O)CC(O)CC(=O)O[C@H]1C)CC(O)C2C(=O)O (stereo partly shown) [Nystatin]	100 µg/mL
CCCCCCCCCCCCOS(=O)(=O)[O-].[Na+] [Sodium dodecyl sulfate]	333 µg/mL

Same assay, conditions: >50% reduction in WST-1 turnover and/or altered cell morphology

Molecule	Cytotoxicity [µg/mL]
O=[N+]([O-])c1ccc(Cl)c([N+](=O)[O-])c1 [1-Chloro-2,4-dinitrobenzene (DNCB), 1-Chloro-2,4-dinitrobenzene]	7
Gelatin	>100
Gramicidins A-D [Gramicidins A-D (B. Brevis)]	1.2
Poly-(arginine-aminocaproyl)	>100

Same assay, conditions: human

Molecule	Cytotoxicity [µg/mL]
CCCCS(=N)(=O)CCC(N)C(=O)O (stereo not shown) [Buthionine sulfoximine (BSO), Buthionine sulfoximine]	>7
